Reference: patent publication US4431809A, “Antibiotic A-33853 derivatives” (Eli Lilly and Company, priority 1982, dated 1984)
≈ marks a conversion by molar mass, not a printed value. Read-outs that look alike come from different tables or passages of the source.

Key:
[1] = test system: Staphylococcus aureus X400; assay type: cell-based; details: agar-dilution, 24 hours
[2] = test system: Haemophilus influenzae C.L.; assay type: cell-based; details: agar-dilution, 24 hours
[3] = test system: Haemophilus influenzae 76; assay type: cell-based; details: agar-dilution, 24 hours
[4] = test system: Staphylococcus epidermidis 222; assay type: cell-based; details: agar-dilution, 24 hours
physchem = details: 66% dimethylformamide in water
[5] = test system: Streptococcus pneumoniae Park I; assay type: cell-based; details: 24 h
[6] = test system: Streptococcus sp. Group D 9960; assay type: cell-based; details: agar-dilution, 24 hours
[7] = test system: Staphylococcus aureus V41; assay type: cell-based
[8] = test system: Streptococcus sp. Group D X66; assay type: cell-based
Solubility = assay type: physicochemical
[9] = test system: Staphylococcus epidermidis EPI1; assay type: cell-based; details: EPI1, 24 h
[10] = test system: Streptococcus pyogenes C203; assay type: cell-based; details: agar-dilution, 24 hours
Trichomonas vaginalis = assay: Tube-dilution test, Trichomonas vaginalis; assay type: cell-based; details: for MIC: Trichomonas vaginalis, tube-dilution test, T. vaginalis, read-out: minimal inhibitory concentration (MIC); for in vitro activity against Trichomonas vaginalis: in words
[11] = test system: Maryland B influenza virus; assay: In vitro antiviral activity, Maryland B influenza virus; assay type: cell-based; details: in words
[12] = 66 percent aqueous dimethylformamide
[13] = Acute toxicity in the mouse, IP; details: in vivo
mosquito = assay: Mosquito larvicide activity; assay type: in vivo; details: in words
[14] = test system: Staphylococcus aureus 3074; assay: Agar-dilution screening (ICS); assay type: cell-based; details: benzylpenicillin resistant
Salmonella typhosa SA12 = assay: Agar-dilution screening (ICS); details: Salmonella enterica
Eimeria tenella = assay: In vitro activity against Eimeria tenella; assay type: cell-based; details: in words
[15] = test system: Pasteurella multocida (bovine); assay: In vitro MIC, bacteria pathogenic to animals; assay type: cell-based
Description: (§1) Antibiotic A-33853 was also tested in vitro to determine the MIC in μg./ml. against a number of bacterial organisms pathogenic to animals.

Mycoplasma gallisepticum = assay: In vitro MIC, bacteria pathogenic to animals; assay type: cell-based; details: Mycoplasmoides gallisepticum
Description: as §1

Mycoplasma synoviae = assay: In vitro MIC, bacteria pathogenic to animals; assay type: cell-based; details: Mycoplasmopsis synoviae
Description: as §1

[16] = test system: Pasteurella multocida (turkey); assay: In vitro MIC, bacteria pathogenic to animals; assay type: cell-based
Description: as §1

Aeromonas liquefaciens = assay: In vitro MIC, bacteria pathogenic to animals; assay type: cell-based; details: Aeromonas hydrophila
Description: as §1

Mycoplasma hyopneumoniae = assay: In vitro MIC, bacteria pathogenic to animals; assay type: cell-based; details: Mesomycoplasma hyopneumoniae
Description: as §1

Streptococcus sp. = assay: In vitro MIC, bacteria pathogenic to animals; assay type: cell-based
Description: as §1

Staphylococcus sp. = assay: In vitro MIC, bacteria pathogenic to animals; assay type: cell-based
Description: as §1

Salmonella dublin = assay: In vitro MIC, bacteria pathogenic to animals; assay type: cell-based; details: Salmonella enterica
Description: as §1

[17] = test system: Bordetella bronchiseptica; assay: In vitro MIC, bacteria pathogenic to animals; assay type: cell-based
Description: as §1

Mycoplasma hyorhinis = assay: In vitro MIC, bacteria pathogenic to animals; assay type: cell-based
Description: as §1

Pseudomonas (animal) = assay: In vitro MIC, bacteria pathogenic to animals; assay type: cell-based
Description: as §1

Escherichia coli = assay: In vitro MIC, bacteria pathogenic to animals; assay type: cell-based
Description: as §1

Pseudomonas (fish) = assay: In vitro MIC, bacteria pathogenic to animals; assay type: cell-based
Description: as §1

[18] = test system: Staphylococcus aureus 3055; assay: Agar-dilution screening (ICS); assay type: cell-based; details: benzylpenicillin-susceptible
[19] = test system: Staphylococcus aureus 3074; assay: Disc-plate screening; assay type: cell-based; details: benzylpenicillin resistant, read-out: Zone Diameter
Description: (§2) Agar plates, inoculated with the test organism, were used; 6 mm. discs (0.02 ml. capacity) were saturated from log 2 dilutions of the antibiotic solution. Disc content was 1/5 or 1/50 of the concentration of the solution used, i.e., disc content of […] 30 μg. was obtained from a solution of 1500 μg./ml. concentration.

[20] = test system: Streptococcus pyogenes C203; assay: Disc-plate screening; assay type: cell-based; details: read-out: Zone Diameter
Description: as §2

[21] = test system: Staphylococcus aureus 3055; assay: Disc-plate screening; assay type: cell-based; details: benzylpenicillin-susceptible, read-out: Zone Diameter
Description: as §2

[22] = test system: Staphylococcus aureus 3130; assay: Disc-plate screening; assay type: cell-based; details: benzylpenicillin resistant, methicillin resistant, read-out: Zone Diameter
Description: as §2

[23] = alkaline solutions and most organic solvents

CC(=O)Oc1cccnc1C(=O)N(C(C)=O)c1c(OC(C)=O)cccc1-c1nc2c(C(=O)O)cccc2o1 [triacetyl derivative]
MIC [1]: 64 µg/mL (≈ 124 µM) | MIC [2]: 4 µg/mL (≈ 7.73 µM) | MIC [3]: 64 µg/mL (≈ 124 µM) | MIC [4]: 4 µg/mL (≈ 7.73 µM) | pKa (physchem; pH 4.7, pKa): 6.85 | MIC [5]: 32 µg/mL (≈ 61.8 µM) | MIC [6]: > 128 µg/mL | MIC ([7]; V41, agar-dilution, 24 hours, read-out: MIC): 32 µg/mL (≈ 61.8 µM) | MIC ([8]; agar-dilution, 24 hours, read-out: MIC): > 128 µg/mL | solubility (Solubility; [23]): soluble | solubility (Solubility; hydrocarbon solvents and water): insoluble | MIC ([9]; read-out: MIC): 16 µg/mL (≈ 30.9 µM) | MIC [10]: 8 µg/mL (≈ 15.5 µM)

CC(=O)OC(=O)c1cccc2oc(-c3cccc(OC(C)=O)c3N(C(C)=O)C(=O)c3ncccc3OC(C)=O)nc12 [tetraacetyl A-33853, 2-[2-[acetyl[[3-(acetyloxy)-2-pyridinyl]carbonyl]amino]-3-(acetyloxy)phenyl]-4-benzoxazolecarboxylic acid, anhydride with acetic acid]
MIC (Trichomonas vaginalis): 125 µg/mL (≈ 223 µM) | in vitro activity against Trichomonas vaginalis (Trichomonas vaginalis): active in vitro | growth inhibition / activity in vitro [11]: active in vitro | titratable groups [12]: no titratable groups | solubility (Solubility; acetone, methanol, ethyl acetate, tetrahydrofuran, water, dimethyl sulfoxide, 0.1 N aqueous NaOH, 0.1 N aqueous HCl): insoluble, or only sparingly soluble | solubility (Solubility; organic solvent or mixture, soluble in pyridine and chloroform, read-out: solubility): ≥ 1000 µg/mL

O=C(Nc1c(O)cccc1-c1nc2c(C(=O)O)cccc2o1)c1ncccc1O [A-33853, 2-[3-hydroxy-2-[[(3-hydroxy-2-pyridinyl)carbonyl]amino]phenyl]-4-benzoxazolecarboxylic acid]
LD50 [13]: > 300 mg/kg | MIC (Trichomonas vaginalis): < 0.975 µg/mL | in vitro activity against Trichomonas vaginalis (Trichomonas vaginalis): active in vitro | mosquito larvicide activity (mosquito): active as a mosquito larvicide | pKa (physchem; pH 5, pKa (first titratable group)): ~7.25 | pKa (physchem; pH 5, pKa (second titratable group)): ~10 | pKa (physchem; pH 5, pKa (third titratable group)): ~12.2 | MIC [14]: 2 µg/mL (≈ 5.11 µM) | growth inhibition / activity in vitro [11]: inhibits the growth in vitro | MIC (Salmonella typhosa SA12): 2 µg/mL (≈ 5.11 µM) | in vitro activity against Eimeria tenella (Eimeria tenella): active in vitro | MIC [15]: 1.56 µg/mL (≈ 3.99 µM) | MIC (Mycoplasma gallisepticum): 1.56 µg/mL (≈ 3.99 µM) | MIC (Mycoplasma synoviae): 1.56 µg/mL (≈ 3.99 µM) | MIC [16]: 6.25 µg/mL (≈ 16 µM) | MIC (Aeromonas liquefaciens): 3.12 µg/mL (≈ 7.97 µM) | MIC (Mycoplasma hyopneumoniae): < 0.78 µg/mL | MIC (Streptococcus sp.): 6.25 µg/mL (≈ 16 µM) | MIC (Staphylococcus sp.): 3.12 µg/mL (≈ 7.97 µM) | MIC (Salmonella dublin): > 50 µg/mL | MIC [17]: > 50 µg/mL | MIC (Mycoplasma hyorhinis): 1.56 µg/mL (≈ 3.99 µM) | MIC (Pseudomonas (animal)): > 50 µg/mL | MIC (Escherichia coli): > 50 µg/mL | MIC (Pseudomonas (fish)): 50 µg/mL (≈ 128 µM) | MIC [18]: 2 µg/mL (≈ 5.11 µM) | zone of inhibition at 30 µg/disc ([19]; 30 μg./disc): 10.4 mm | zone of inhibition at 300 µg/disc ([19]; 300 μg./disc): 11.6 mm | zone of inhibition at 30 µg/disc ([20]; 30 μg./disc): 0 mm | zone of inhibition at 300 µg/disc ([20]; 300 μg./disc): 8 mm | zone of inhibition at 30 µg/disc ([21]; 30 μg./disc): 10 mm | zone of inhibition at 300 µg/disc ([21]; 300 μg./disc): 11 mm | zone of inhibition at 30 µg/disc ([22]; 30 μg./disc): 13.2 mm | zone of inhibition at 300 µg/disc ([22]; 300 μg./disc): 13.4 mm | solubility (Solubility; acetone, methanol, ethyl acetate, tetrahydrofuran, chloroform, and water): less soluble | solubility (Solubility; organic solvent or mixture, soluble in dimethylsulfoxide, pyridine, and 0.1 N sodium hydroxide, read-out: solubility): ≥ 5000 µg/mL

CC(=O)Oc1cccnc1C(=O)Nc1c(OC(C)=O)cccc1-c1nc2c(C(=O)O)cccc2o1 [diacetyl derivative]
MIC [1]: 16 µg/mL (≈ 33.7 µM) | MIC [2]: 4 µg/mL (≈ 8.41 µM) | MIC [3]: 64 µg/mL (≈ 135 µM) | MIC [4]: 4 µg/mL (≈ 8.41 µM) | pKa (physchem; pH 4.92, pKa): 6.8 | MIC [5]: 8 µg/mL (≈ 16.8 µM) | MIC [6]: > 128 µg/mL | MIC ([7]; V41, 24 h): 16 µg/mL (≈ 33.7 µM) | MIC ([8]; 24 h): > 128 µg/mL | solubility (Solubility; [23]): soluble | solubility (Solubility; hydrocarbon solvents and water): insoluble | MIC [9]: 8 µg/mL (≈ 16.8 µM) | MIC [10]: 8 µg/mL (≈ 16.8 µM)
